According to patent US7554012B2, “Plants and plant cells exhibiting resistance to AMPA, and methods for making the same” (priority 1998, dated 2009):
Where “and” joins values, the source holds several entries; their conditions need not be identical. Equal values may be shown once. Read-outs that look alike come from different tables or passages of the source.

Columns and labels:
PhnO enzyme = PhnO enzyme (Escherichia coli, UniProt P16691, P2A)
Protocol: The apparent Km (Km) and Vmax (Vmax) of PhnO enzyme were determined for the substrates aminomethlyphosphonate and acetyl-CoA. Determination of the PhnO Km and Vmax were made by endpoint kinetic analyses, determining the enzyme velocity in consuming each substrate at varying substrate concentrations, and plotting the inverse of the enzyme velocity versus the inverse of the substrate concentration to produce a Lineweaver-Burk plot of enzyme kinetics. The conversion of [^14C]-AMPA to N-acetyl-[^14C]-AMPA was monitored as in example 2, using enzyme in a desalted crude lysate of E. coli expressing phnO from pMON15032, produced as in example 4. […] Enzyme reactions were incubated at 37° C. for 5 minutes and quenched with 1 volume of 100 mM sodium acetate (NaOAc), pH 4.4, in ethanol. Samples were analyzed by HPLC to determine the amount of [^14C]-AMPA converted to N-acetyl-[^14C]-AMPA.

[1] = tested on: recombinant cotton line 4416; experiment: [^14C]-glyphosate metabolism in cotton line 4416; format: in vivo, cotton (Gossypium hirsutum L.); conditions: line 4416 plants; listed as [^14C]-Glyphosate
Protocol: Coker 312 glyphosate resistant recombinant cotton line 4416 was selected as a glyphosate resistant cotton line after transformation with pMON10149, a triple gene Agrobacterium tumefaciens mediated double border plant transformation vector containing chloroplast targeted EPSPS, GOX, and PhnO, each expressed independently from separate 35S promoters. Several 4416 R3 plants were raised from R2 seed. One leaf of each plantlet at the three or four stage was treated with a mixture of ROUNDUP ULTRA™ commercial herbicide mixture (Lot No. GLP-9701-7428-F) which had been fortified with [^14C]-glyphosate (Code No. C-2251). […] The treatment solution consisted of approximately 38 μL containing 1.60×10^6 dpm with a [^14C]-glyphosate specific activity of 1.713×10^3 dpm/μg glyphosate acid. Three or seven days after topical application the treated leaves were rinsed with water, frozen in liquid nitrogen, fractured with a spatula and then ground using a TEKMAR™ tissuemizer in 10 mL of water. The leaf extracts were adjusted to pH 3.5-4.0 with 1N HCl and approximately 4-8000 dpm were analyzed for the presence of [^14C]-metabolites by HPLC with liquid scintillation vial collection and detection (HPLC/LSC) as described in example 2. The new growth including the meristem and new leaves that emerged following topical application were also extracted and analyzed for [^14C]-metabolites.

transformed corn callus = experiment: [^14C]-glyphosate metabolism assay in corn callus
From the text: A [^14C]-glyphosate metabolism assay was used for determining whether transformed corn callus tissues contain functioning forms of these enzymes. The assay was developed to screen large numbers of corn callus samples. Callus was obtained from Monsanto Company and Dekalb Seed Company corn transformation groups. The Monsanto callus samples, individually designated as callus lines “19nn-nn-nn” in Table 16, were produced from HI II×B73 corn embryos. Callus samples were bombarded with complete covalently closed circular recombinant plant transformation vector plasmid DNA or with linear DNA fragments isolated from such plasmids 25-50 days after embryo isolation. Transformed lines were identified 8-14 weeks after bombardment. These lines were sub-cultured on fresh media every 2 weeks and were 5-7 months old when used in the metabolism assay. The Dekalb callus lines OO, OR, OW, OX, and OY were obtained from HI II×AW embryos. All line designations correspond to the recombinant plasmid or linear fragment used for ballistic transformation of callus tissue as noted in the legend to Table 16.
4.5 mCi of N-phosphono-[^14C]-methylglycine ([^14C]-glyphosate) was obtained from the Monsanto Radiosynthesis group in a 1.5 mM aqueous solution, having a specific radioactivity of 39.4 mCi/mM (5.2×10^5 dpm/microgram). The sample was identified with code number C-2182.2. A stock solution sterilized by filtration through a 0.2-micron Acrodisk (Gelman no. 4192) was prepared by combining 2.5 mL [^14C]-glyphosate (3.3×10^8 dpm) with 2.5 mL of corn callus growth medium (N6 medium) and 5.0 mg of Mon 0818 surfactant. [^14C]-glyphosate in the resulting dose solution was 0.75 mM. The N6 medium was described by Chu et al. (1975) and was prepared using salts and vitamins obtained from Sigma Chemical Company, St. Louis, Mo. Mon 0818 surfactant is ethoxylated tallowamine, the surfactant used in Roundup herbicide. The dose solution was subjected to HPLC analysis as described in Example 2. […] Two additional dose solutions were prepared using these reagents, each of which were scaled three fold to 15 ml volumes based on the preparation method described above.
Under aseptic conditions, corn callus samples were transferred to individual wells of sterile 48-well COSTAR™ cell culture clusters (cat. No. 3548). The individual callus samples were not weighed. However, in several cases the total weight of the callus samples in a 48-well plate was determined. Typically, the average weight of individual callus samples was approximately 200-250 mg. In each assay, a nontransformed callus sample, HI II×B73, was included as a control. 50 μL of dose solution containing 3.3×10^6 dpm of [^14C]-glyphosate was added to each callus sample. 48-well plates were sealed with parafilm and placed in a plastic bag containing a wet paper towel to provide a moist atmosphere. Bags were closed and placed in a dark drawer at 25° C. for 10 days. Each callus sample was subsequently transferred to a labeled microcentrifuge tube (VWR, 1.7-mL, cat. No. 20170-620). 1.0 mL of de-ionized water was added to each tube, and the tubes were closed and placed in round 20-tube floating microcentrifuge racks (Nalge cat. no. 5974-1015). These microfuge tubes were floated in boiling water for 30 minutes, shaken using a vortex mixer, and centrifuged for 5 minutes using a Fisher brand microcentrifuge. 120-μL supernatant samples were removed for analysis by HPLC as described below. The samples were injected using a Waters WISP autoinjector.

[2] = AMPA substrate 200 nm (nanomoles)
[3] = FIG. 3, callus transformed with GOX and AMPA acetyltransferase
[4] = control callus HI II×B73, no inserted genes

Chain of PhnO enzyme (P16691 whole entry P2A): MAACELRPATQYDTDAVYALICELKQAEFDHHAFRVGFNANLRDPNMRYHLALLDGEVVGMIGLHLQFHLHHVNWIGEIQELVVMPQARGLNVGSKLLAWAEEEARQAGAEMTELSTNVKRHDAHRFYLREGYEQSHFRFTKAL

NCP(=O)(O)O [AMPA, N-aminomethyl phosphonic acid]
% Turnover (PhnO enzyme; [2]): 39.5% | Velocity (PhnO enzyme; [2]): 79 nm per minute per mg of protei | % Turnover (PhnO enzyme; AMPA substrate 400 nm): 35.1% | Velocity (PhnO enzyme; AMPA substrate 400 nm): 140 nm per minute per mg of protei | % Turnover (PhnO enzyme; AMPA substrate 800 nm): 32.9% | Velocity (PhnO enzyme; AMPA substrate 800 nm): 263 nm per minute per mg of protei | % Turnover (PhnO enzyme; AMPA substrate 1200 nm): 26.8% | Velocity (PhnO enzyme; AMPA substrate 1200 nm): 322 nm per minute per mg of protei | % Turnover (PhnO enzyme; AMPA substrate 1600 nm): 26.2% | Velocity (PhnO enzyme; AMPA substrate 1600 nm): 426 nm per minute per mg of protei | % Turnover (PhnO enzyme; AMPA substrate 2000 nm): 22.1% | Velocity (PhnO enzyme; AMPA substrate 2000 nm): 442 nm per minute per mg of protei | % Turnover (PhnO enzyme; AMPA substrate 2400 nm): 19.2% | Velocity (PhnO enzyme; AMPA substrate 2400 nm): 461 nm per minute per mg of protei | % Turnover (PhnO enzyme; AMPA substrate 2800 nm): 17.6% | Velocity (PhnO enzyme; AMPA substrate 2800 nm): 493 nm per minute per mg of protei | % Turnover (PhnO enzyme; AMPA substrate 3200 nm): 17.3% | Velocity (PhnO enzyme; AMPA substrate 3200 nm): 554 nm per minute per mg of protei | % Turnover (PhnO enzyme; AMPA substrate 3600 nm): 14.5% | Velocity (PhnO enzyme; AMPA substrate 3600 nm): 522 nm per minute per mg of protei | % Turnover (PhnO enzyme; AMPA substrate 4000 nm): 13.6% | Velocity (PhnO enzyme; AMPA substrate 4000 nm): 544 nm per minute per mg of protei | % Turnover (PhnO enzyme; AMPA substrate 6000 nm): 12.7% | Velocity (PhnO enzyme; AMPA substrate 6000 nm): 762 nm per minute per mg of protei | % Turnover (PhnO enzyme; AMPA substrate 7600 nm): 10% | Velocity (PhnO enzyme; AMPA substrate 7600 nm): 760 nm per minute per mg of protei | apparent Vmax (PhnO enzyme; AMPA substrate, Lineweaver-Burk plot): about 824 U/mg protein | Km (PhnO enzyme; read-out: apparent Km of PhnO for AMPA as a substrate, Lineweaver-Burk plot of Table 8 data): ~9 mM

N-phosphono-methyl-glycine [Glyphosate]
% [^14C] metabolite in Glyphosate Treated Leaf Extract: AMPA [1]: 2.1% and 2.0% and 1.6% and 2.2% and 2.5% | % [^14C] metabolite in Glyphosate Treated Leaf Extract: N-Acetyl-AMPA [1]: 27-74% | % [^14C] metabolite in New Growth Extract: AMPA [1]: 0.2% and 0.5% and 2.5% | % [^14C] metabolite in New Growth Extract: Glyphosate [1]: greater than 90% | % [^14C] metabolite in New Growth Extract: N-Acetyl AMPA [1]: greater than 90% | N-acetyl-[^14C]AMPA, of total observed [^14C] (transformed corn callus; [3]): 4.54% | [^14C] AMPA, of total observed [^14C] (transformed corn callus; [3]): 1.71% | [^14C] glyphosate, of total observed [^14C] (transformed corn callus; [3]): 92.5% | Percent N-Acetyl-[^14C]-AMPA (transformed corn callus; callus OR516 transformed with pMON32926): 0.50-4.54% | Percent N-Acetyl-[^14C]-AMPA (transformed corn callus; callus OR516 transformed with pMON32926, listed as [^14C]-glyphosate): 1.91% | Percent [^14C]-AMPA (transformed corn callus; callus line transformed with pMON32571): 2.89% | Percent N-Acetyl-[^14C]-AMPA (transformed corn callus; callus line transformed with pMON32573): 0.39% | Percent N-Acetyl-[^14C]-AMPA (transformed corn callus; callus line transformed with pMON32932): 0.28% | Percent N-Acetyl-[^14C]-AMPA (transformed corn callus; callus line transformed with pMON32938): 0.21% | Percent [^14C]-AMPA (transformed corn callus; callus line transformed with pMON32946): 2.51% | Percent [^14C]-AMPA (transformed corn callus; callus line transformed with pMON32947): 1.99% | Percent N-Acetyl-[^14C]-AMPA (transformed corn callus; callus line transformed with pMON32952): 0.37% | Percent N-Acetyl-[^14C]-AMPA (transformed corn callus; callus lines transformed with pMON32571, listed as [^14C]-glyphosate): 0.22% and 0.25% | Percent N-Acetyl-[^14C]-AMPA (transformed corn callus; callus lines transformed with pMON32931, listed as [^14C]-glyphosate): 0.40% and 0.75% and 0.55% | Percent [^14C]-AMPA (transformed corn callus; callus lines transformed with pMON32936, listed as [^14C]-glyphosate): 2.29% and 3.05% and 2.15% and 2.06% | Percent [^14C]-AMPA (transformed corn callus; callus lines transformed with pMON32938, listed as [^14C]-glyphosate): 2.41% and 2.90% | Percent N-Acetyl-[^14C]-AMPA (transformed corn callus; callus lines transformed with pMON32946, listed as [^14C]-glyphosate): 0.77% and 0.85% | Percent N-Acetyl-[^14C]-AMPA (transformed corn callus; callus lines transformed with pMON32947, listed as [^14C]-glyphosate): 0.60% and 0.71% | N-acetyl-[^14C]-AMPA produced (transformed corn callus; [4]): no detectable levels | [^14C]-AMPA produced (transformed corn callus; [4]): only background levels
